Reference: PMC12515225, “Targeting neuroblastoma with hydroxamic acid based HDAC1 and HDAC2 inhibitors: Insights from in vitro and in vivo studies” (Investigational New Drugs, 2025)

What was measured:
HDAC2 = HDAC2 (Homo sapiens, UniProt Q92769); experiment: fluorogenic HDAC activity assay with HDAC2 protein (BPS […]), Boc-Lys(Ac)-AMC substrate; type: biochemical
HDAC1 = HDAC1 (Homo sapiens, UniProt Q13547); experiment: fluorogenic HDAC activity assay with HDAC1 protein (BPS […]), Boc-Lys(Ac)-AMC substrate; type: biochemical
Chain of HDAC1 (Q13547 whole entry): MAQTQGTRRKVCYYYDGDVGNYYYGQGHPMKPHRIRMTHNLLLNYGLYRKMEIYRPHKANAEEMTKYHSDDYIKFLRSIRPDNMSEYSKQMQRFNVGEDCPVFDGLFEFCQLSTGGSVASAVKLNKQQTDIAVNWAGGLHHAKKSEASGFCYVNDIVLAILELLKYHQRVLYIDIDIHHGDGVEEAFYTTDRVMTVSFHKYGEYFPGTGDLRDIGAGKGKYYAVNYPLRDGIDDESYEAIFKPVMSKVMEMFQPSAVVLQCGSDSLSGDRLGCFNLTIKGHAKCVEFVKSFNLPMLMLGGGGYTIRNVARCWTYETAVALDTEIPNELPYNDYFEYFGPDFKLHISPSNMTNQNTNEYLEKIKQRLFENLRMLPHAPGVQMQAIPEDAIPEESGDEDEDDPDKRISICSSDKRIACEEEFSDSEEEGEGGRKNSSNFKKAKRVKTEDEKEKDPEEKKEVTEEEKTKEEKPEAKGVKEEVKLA

Chain of HDAC2 (Q92769 whole entry): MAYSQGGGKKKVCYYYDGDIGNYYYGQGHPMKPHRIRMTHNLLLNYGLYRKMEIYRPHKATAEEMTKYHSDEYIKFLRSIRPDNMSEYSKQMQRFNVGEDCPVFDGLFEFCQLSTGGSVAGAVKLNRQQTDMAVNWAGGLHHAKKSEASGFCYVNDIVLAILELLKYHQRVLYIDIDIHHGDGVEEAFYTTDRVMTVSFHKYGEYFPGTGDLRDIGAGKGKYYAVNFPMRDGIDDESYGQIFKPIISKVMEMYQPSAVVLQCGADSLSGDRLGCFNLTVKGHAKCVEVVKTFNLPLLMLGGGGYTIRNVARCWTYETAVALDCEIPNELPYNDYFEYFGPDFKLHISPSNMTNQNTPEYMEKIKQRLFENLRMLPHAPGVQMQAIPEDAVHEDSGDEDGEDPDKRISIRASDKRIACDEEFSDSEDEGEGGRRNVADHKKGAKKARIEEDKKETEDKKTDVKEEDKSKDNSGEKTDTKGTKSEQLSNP

SMILES	IC50 (HDAC2) [nM]	IC50 (HDAC1) [nM]
O=C(NO)c1cccc(-c2ccccn2)n1 [3A, N-hydroxy[2,2'-bipyridine]-6-carboxamide]	890	–
O=C(CCCCCCC(=O)Nc1cccc(-c2ccccn2)n1)NO [3B, N^1-([2,2'-bipyridin]-6-yl)-N^8-hydroxyoctanediamide]	1940	440
